{"source": "paper PMC9340770", "about": "(Journal of Medicinal Chemistry, 2022)", "key": {"SOS2": {"target": "T1, SOS2 (Homo sapiens, UniProt Q07890)", "T1 construct": "amino acids 558-1047, expressed in E. coli with a N-terminal HIS-tag MW=59.3 kDa; His (N); purchased Accelagen Inc; host or cells: E. coli", "T1 sequence (Q07890 558-1047)": "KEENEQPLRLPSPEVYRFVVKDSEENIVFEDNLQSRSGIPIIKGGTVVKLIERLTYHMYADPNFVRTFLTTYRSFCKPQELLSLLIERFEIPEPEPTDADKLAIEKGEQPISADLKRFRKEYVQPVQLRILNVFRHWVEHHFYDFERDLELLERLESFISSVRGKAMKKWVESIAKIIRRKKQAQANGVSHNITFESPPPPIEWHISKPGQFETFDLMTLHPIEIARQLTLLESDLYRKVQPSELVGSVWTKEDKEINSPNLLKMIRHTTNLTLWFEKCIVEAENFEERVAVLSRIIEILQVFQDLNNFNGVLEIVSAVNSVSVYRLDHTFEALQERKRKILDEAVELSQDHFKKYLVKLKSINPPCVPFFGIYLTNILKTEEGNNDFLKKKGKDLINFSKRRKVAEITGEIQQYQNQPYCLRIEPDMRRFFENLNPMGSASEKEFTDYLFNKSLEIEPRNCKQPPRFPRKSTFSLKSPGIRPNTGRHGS", "test": "SOS2 KRAS WT GDP exchange assay", "format": "biochemical", "experimental": "The plates were incubated overnight at 4 °C on a shaker.\nEach plate was washed 3x times […]\nfor 2 hours (protected from light). The secondary antibody solution as removed and each plate […]\nwas washed with PBST 3x times. […]\nlength at 3mm and both 800nm and 700nm filters. The GAPDH normalized scan values for each […]\nwere then calculated with the Graph pad Prism software.\nEGFR selectivity was profiled using Reaction Biology’s radiometric HotSpot kinase assay with human EGFR. Compounds were sent as a powder then suspended as a 10 mM DMSO stock […]\nstarting at 20 μM. Reactions were carried out at 10 μM ATP.\nSOS2 KRAS WT GDP Exchange Assay\nThe final conditions for the Functional SOS2 Assay are as follows: 50 mM HEPES 7.5, 2nM SOS2, 50nM GTP-CY5, 30nM KRAS, 0.5 nM Tb-SA, 5 mM MgCl2, 1 mM TCEP, 0.2 mg/mL BSA, ~1.0% DMSO. Recombinant human SOS2 polypeptide (Accelagen Inc., corresponding to amino acids 558-1047, expressed in E. coli with a N-terminal HIS-tag MW=59.3 kDa) and Cy5-GTP (Jena Bioscience Inc) were added to an exemplary compound (in a DMSO stock solution) at room temperature for 15 minutes. […] 100 percent of control (POC) is determined by using a DMSO control and 0 POC is determined using a concentration of control […]"}, "[1]": {"test": "pKa determination (Sirius T3)", "format": "physicochemical", "details": "for pKa: water/methanol co-solvent mixture", "experimental": "Sirius T3Dt (Sirius Analytical Instruments Ltd) fitted with combination Ag/AgCl pH electrode was used for the determination of dissociation constants. The pKa and psKa values were calculated by Sirius T3Dt software (Sirius Analytical Instruments Ltd, Version 1.0.12.120). There are two methods available on the Sirius T3 for pKa measurement: potentiometric titration and spectroscopic (UV) titration.\nUV metric method: Pipetted 5 µL of sample stock solution (10 mM in DMSO) and 25 µL fast UV buffer into a sample vial, and 1.5 mL of 80%v/v MeOH was added into the sample vial automatically. Pre - acidified the sample solution with 0.5 M HCl by the instrument automatically, and then titrated three times from low to high pH. Refined the data to get aqu eous pKa value. pH metric method: About 1 mg of sample was weighed into a sample vial. 1.50 mL of 80%v/v MeOH was added into the vial automatically. The sample was solution pre -acidified with 0.5 M HCl by the instrument automatically, and then titrated three times from low to high pH. Refined the data to get aqueous pKa value.\nSirius T3 software always fits Yasuda -Shedlovsky data linearly, according to the equation.\n• Yi is calculated as psKa + log [H 2O]\n• psKa represents apparent pKa values of compounds measured in water/co -solvent mixtures • [H2O] represents the concentration of H2O in mixtures solution […]\n• ε i represents dielectric constant of water/co-solvent mixture\nTable S3. pKa of MRTX0902\nCmpd pKa pKa (pH Final pKa"}, "HRH1": {"target": "T2, HRH1 (Homo sapiens, UniProt P35367)", "T2 construct": "purchased DiscoverX (Eurofins) Safetyscan Panel", "T2 sequence (P35367 whole entry)": "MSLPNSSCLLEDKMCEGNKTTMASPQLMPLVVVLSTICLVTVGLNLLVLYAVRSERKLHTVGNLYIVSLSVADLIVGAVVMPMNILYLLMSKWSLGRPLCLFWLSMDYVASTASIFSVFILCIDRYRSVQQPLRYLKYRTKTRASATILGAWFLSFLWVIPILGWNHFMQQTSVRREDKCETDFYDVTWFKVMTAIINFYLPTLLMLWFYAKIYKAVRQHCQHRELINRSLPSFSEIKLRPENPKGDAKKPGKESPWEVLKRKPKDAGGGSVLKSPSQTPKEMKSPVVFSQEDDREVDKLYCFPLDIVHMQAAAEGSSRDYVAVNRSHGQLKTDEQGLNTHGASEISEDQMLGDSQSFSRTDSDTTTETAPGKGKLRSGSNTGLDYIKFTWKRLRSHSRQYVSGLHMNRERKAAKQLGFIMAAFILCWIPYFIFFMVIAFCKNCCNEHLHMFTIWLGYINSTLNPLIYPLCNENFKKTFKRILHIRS", "test": "Safetyscan Calcium Flux", "format": "cell-based"}, "HRH2": {"target": "T3, HRH2 (Homo sapiens, UniProt P25021)", "T3 construct": "purchased DiscoverX (Eurofins) Safetyscan Panel", "T3 sequence (P25021 whole entry)": "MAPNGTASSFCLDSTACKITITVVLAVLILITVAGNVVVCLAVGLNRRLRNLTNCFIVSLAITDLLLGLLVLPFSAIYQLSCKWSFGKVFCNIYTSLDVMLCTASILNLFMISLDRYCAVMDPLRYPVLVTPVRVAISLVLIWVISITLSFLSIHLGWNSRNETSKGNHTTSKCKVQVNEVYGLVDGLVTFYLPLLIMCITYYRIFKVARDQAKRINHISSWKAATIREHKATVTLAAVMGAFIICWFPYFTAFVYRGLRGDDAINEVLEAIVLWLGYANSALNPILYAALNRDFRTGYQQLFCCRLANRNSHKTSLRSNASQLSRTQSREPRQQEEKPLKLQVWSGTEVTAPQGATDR", "test": "Safetyscan cAMP", "format": "cell-based"}, "hERG": {"target": "T4, hERG (Homo sapiens, UniProt Q12809)", "T4 construct": "purchased DiscoverX (Eurofins)", "T4 sequence (Q12809 whole entry)": "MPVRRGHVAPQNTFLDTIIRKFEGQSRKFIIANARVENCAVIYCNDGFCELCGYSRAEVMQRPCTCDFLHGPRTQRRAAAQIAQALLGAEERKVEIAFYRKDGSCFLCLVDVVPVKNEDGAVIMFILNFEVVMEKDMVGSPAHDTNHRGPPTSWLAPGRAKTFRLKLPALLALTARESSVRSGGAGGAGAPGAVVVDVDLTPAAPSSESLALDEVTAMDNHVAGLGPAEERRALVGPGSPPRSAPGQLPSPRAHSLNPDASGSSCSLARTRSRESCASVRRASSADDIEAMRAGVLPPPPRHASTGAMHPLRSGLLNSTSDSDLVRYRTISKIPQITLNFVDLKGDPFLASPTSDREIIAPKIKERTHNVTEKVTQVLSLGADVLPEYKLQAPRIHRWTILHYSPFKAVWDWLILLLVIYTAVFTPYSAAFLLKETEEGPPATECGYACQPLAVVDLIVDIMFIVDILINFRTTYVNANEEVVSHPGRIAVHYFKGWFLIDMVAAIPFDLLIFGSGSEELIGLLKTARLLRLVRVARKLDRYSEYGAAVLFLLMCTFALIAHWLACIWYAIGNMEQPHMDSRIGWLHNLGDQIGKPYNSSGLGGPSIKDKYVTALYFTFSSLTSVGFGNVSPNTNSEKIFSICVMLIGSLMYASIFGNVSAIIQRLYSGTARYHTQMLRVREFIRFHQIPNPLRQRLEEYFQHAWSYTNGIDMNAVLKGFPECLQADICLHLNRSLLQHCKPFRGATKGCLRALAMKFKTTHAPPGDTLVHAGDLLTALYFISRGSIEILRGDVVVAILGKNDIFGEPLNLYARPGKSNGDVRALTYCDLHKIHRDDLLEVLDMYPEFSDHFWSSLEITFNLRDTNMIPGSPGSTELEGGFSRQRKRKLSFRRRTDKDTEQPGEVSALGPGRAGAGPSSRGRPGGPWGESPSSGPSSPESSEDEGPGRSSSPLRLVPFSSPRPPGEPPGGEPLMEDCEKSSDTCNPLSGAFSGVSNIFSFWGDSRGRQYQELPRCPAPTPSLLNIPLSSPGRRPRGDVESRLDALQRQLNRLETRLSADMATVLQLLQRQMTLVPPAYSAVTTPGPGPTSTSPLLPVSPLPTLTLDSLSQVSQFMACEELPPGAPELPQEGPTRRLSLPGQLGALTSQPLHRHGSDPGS", "test": "Safetyscan Ion Channel", "format": "cell-based", "details": "blocker mode, read-out: RC50 (IC50) hERG Blocker"}, "INSR": {"target": "T5, INSR (Homo sapiens, UniProt P06213)", "T5 construct": "purchased DiscoverX (Eurofins)", "T5 sequence (P06213 28-1382)": "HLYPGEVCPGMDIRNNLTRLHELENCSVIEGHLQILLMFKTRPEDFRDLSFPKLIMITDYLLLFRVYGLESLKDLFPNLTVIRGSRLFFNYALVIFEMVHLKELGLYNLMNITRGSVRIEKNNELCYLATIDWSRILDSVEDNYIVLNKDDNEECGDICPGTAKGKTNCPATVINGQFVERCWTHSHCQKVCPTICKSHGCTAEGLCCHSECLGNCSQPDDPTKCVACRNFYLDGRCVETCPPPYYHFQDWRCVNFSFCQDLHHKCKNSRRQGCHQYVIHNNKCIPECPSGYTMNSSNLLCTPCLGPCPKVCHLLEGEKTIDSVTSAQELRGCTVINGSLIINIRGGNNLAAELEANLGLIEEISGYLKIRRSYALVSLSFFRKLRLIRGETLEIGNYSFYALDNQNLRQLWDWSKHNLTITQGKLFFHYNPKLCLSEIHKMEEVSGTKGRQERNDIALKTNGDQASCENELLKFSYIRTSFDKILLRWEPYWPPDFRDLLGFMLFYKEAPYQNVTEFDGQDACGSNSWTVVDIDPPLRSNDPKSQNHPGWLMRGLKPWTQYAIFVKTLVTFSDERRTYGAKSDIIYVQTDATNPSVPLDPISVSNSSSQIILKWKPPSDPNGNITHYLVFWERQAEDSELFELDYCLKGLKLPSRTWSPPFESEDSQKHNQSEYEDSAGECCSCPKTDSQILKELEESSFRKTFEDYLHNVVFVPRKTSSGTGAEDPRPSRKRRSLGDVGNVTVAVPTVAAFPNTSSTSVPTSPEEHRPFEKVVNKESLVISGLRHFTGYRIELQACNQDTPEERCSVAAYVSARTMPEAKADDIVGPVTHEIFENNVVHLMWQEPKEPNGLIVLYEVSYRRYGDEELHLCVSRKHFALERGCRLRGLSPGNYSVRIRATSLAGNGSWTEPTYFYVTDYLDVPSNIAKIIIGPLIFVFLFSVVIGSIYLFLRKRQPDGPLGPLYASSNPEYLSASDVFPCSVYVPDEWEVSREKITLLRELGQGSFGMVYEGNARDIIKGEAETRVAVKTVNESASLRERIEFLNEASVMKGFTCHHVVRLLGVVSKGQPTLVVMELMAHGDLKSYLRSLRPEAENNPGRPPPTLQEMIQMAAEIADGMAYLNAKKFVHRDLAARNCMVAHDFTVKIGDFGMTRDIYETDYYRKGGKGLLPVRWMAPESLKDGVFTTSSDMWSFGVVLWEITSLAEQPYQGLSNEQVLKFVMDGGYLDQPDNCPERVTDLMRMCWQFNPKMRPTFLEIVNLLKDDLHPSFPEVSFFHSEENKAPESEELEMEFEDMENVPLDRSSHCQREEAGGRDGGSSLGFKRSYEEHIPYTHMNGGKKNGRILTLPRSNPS", "test": "Safetyscan Kinases Binding", "details": "read-out: RC50 (IC50) INSR Inhibitor"}, "VEGFR2": {"target": "T6, VEGFR2 (Homo sapiens, UniProt P35968)", "T6 construct": "purchased DiscoverX (Eurofins)", "test": "Safetyscan Kinases Binding", "details": "read-out: RC50 (IC50) VEGFR2 Inhibitor"}, "COX1": {"target": "T7, COX1 (Homo sapiens, UniProt P23219)", "T7 construct": "purchased DiscoverX (Eurofins)", "T7 sequence (P23219 24-599)": "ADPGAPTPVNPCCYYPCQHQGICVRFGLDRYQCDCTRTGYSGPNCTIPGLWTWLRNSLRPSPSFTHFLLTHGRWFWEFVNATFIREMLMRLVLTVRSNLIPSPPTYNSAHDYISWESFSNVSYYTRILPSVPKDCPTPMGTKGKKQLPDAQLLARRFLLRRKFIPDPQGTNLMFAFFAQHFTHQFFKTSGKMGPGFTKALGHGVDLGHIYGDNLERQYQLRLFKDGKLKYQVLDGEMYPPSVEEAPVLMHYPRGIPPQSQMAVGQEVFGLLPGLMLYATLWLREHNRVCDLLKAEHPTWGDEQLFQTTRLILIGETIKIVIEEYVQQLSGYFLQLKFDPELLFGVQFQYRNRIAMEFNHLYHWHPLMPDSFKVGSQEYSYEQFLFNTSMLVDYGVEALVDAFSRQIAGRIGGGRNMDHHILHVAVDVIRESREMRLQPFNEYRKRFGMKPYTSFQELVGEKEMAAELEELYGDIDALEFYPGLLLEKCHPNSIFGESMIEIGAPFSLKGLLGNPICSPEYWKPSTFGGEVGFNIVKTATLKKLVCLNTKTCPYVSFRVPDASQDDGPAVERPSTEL", "test": "Safetyscan Enzymatic", "format": "biochemical", "details": "read-out: RC50 (IC50) COX1 Inhibitor"}, "MAOA": {"target": "T8, MAOA (Homo sapiens, UniProt P21397)", "T8 construct": "purchased DiscoverX (Eurofins)", "T8 sequence (P21397 whole entry)": "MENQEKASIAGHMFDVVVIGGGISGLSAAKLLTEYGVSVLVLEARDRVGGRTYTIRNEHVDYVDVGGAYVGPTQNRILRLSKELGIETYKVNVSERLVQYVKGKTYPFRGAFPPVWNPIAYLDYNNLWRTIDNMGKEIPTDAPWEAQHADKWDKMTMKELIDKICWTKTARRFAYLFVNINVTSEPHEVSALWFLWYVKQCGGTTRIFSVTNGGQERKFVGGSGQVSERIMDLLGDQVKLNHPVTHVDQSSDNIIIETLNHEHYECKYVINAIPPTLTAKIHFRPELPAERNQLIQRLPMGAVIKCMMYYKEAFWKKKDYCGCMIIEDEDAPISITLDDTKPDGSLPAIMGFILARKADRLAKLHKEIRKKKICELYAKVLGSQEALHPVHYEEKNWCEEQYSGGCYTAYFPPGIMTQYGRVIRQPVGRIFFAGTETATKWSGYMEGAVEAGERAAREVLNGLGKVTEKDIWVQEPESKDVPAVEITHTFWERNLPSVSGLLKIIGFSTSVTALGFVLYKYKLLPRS", "test": "Safetyscan Enzymatic", "format": "biochemical", "details": "read-out: RC50 (IC50) MAOA Inhibitor"}, "[2]": {"tested_on": "safety panel comprised of 78 protein targets", "test": "DiscoverX (Eurofins) Safetyscan panel, overall", "details": "safety panel of 78 protein targets"}, "[3]": {"tested_on": "MIA PaCa-2 tumor mouse xenograft", "test": "Antitumor efficacy study in MIA PaCa-2 mouse xenograft", "details": "for tumor growth inhibition (TGI): single agent, 25 days"}, "[4]": {"tested_on": "pERK in MIA PaCa-2 tumors", "test": "Tumor pharmacodynamic (pERK) study in MIA PaCa-2 mouse xenograft"}}, "note": "Read-outs that look alike come from different tables or passages of the source."}
{"molecule": "Cc1c(C#N)cccc1[C@@H](C)Nc1nnc(C)c2cnc(N3CCOCC3)cc12", "note": "[Compound 32, (R)-2-Methyl-3-(1-((4-methyl-7-morpholinopyrido[3,4-d]pyridazin-1-yl)amino)ethyl)benzonitrile]", "values": [{"measurement": "IC50", "setting": "SOS2", "result": "> 10", "unit": "µM"}, {"measurement": "ionized at pH 7.4", "setting": "[1]; pH 7.4, based on measured pKa", "result": "~17", "unit": "%"}, {"measurement": "pKa", "setting": "[1]; UV metric method, read-out: pKa (UV metric)", "result": 6.78}, {"measurement": "pKa", "setting": "[1]; pH 7.4, pKa (final pKa result)", "result": 6.7}, {"measurement": "pKa", "setting": "[1]; pH metric method, read-out: pKa (pH metric)", "result": 6.62}, {"measurement": "EC50", "setting": "HRH1; agonist mode, read-out: RC50 (EC50) HRH1 Agonist", "result": "> 10", "unit": "µM"}, {"measurement": "IC50", "setting": "HRH1; antagonist mode, read-out: RC50 (IC50) HRH1 Antagonist", "result": "> 10", "unit": "µM"}, {"measurement": "EC50", "setting": "HRH2; agonist mode, read-out: RC50 (EC50) HRH2 Agonist", "result": "> 10", "unit": "µM"}, {"measurement": "IC50", "setting": "HRH2; antagonist mode, read-out: RC50 (IC50) HRH2 Antagonist", "result": "> 10", "unit": "µM"}, {"measurement": "IC50", "setting": "hERG", "result": "> 10", "unit": "µM"}, {"measurement": "IC50", "setting": "INSR", "result": "> 10", "unit": "µM"}, {"measurement": "IC50", "setting": "VEGFR2", "result": "> 10", "unit": "µM"}, {"measurement": "IC50", "setting": "COX1", "result": "> 10", "unit": "µM"}, {"measurement": "IC50", "setting": "MAOA", "result": 8.88, "unit": "µM"}, {"measurement": "IC50", "setting": "[2]", "result": "> 10", "unit": "µM"}, {"measurement": "tumor regression", "setting": "[3]; MRTX0902 25 mg/k bid in combination with MRTX849 10 mg/kg qd", "result": "−54", "unit": "%"}, {"measurement": "tumor regression", "setting": "[3]; MRTX0902 50 mg/kg bid in combination with MRTX849 10 mg/kg qd", "result": "−92", "unit": "%"}, {"measurement": "tumor-free animals", "setting": "[3]; MRTX0902 50 mg/kg bid with MRTX849 10 mg/kg qd, n = 5 animals/group", "result": "two tumor-free animals"}, {"measurement": "tumor growth inhibition (TGI)", "setting": "[3]; 25 mg/kg bid PO", "result": 41, "unit": "%"}, {"measurement": "tumor growth inhibition (TGI)", "setting": "[3]; 50 mg/kg bid PO", "result": 53, "unit": "%"}, {"measurement": "pERK modulation in tumors, combination", "setting": "[4]; MRTX0902 in combination with MRTX849, 6 days of dosing, tumors collected 4 h after last dose", "result": "increased pERK modulation"}, {"measurement": "efficacious free Cavg", "setting": "[4]; calculated from AUC0–24 of 50 mg/kg bid in combination with MRTX849, MIA PaCa-2 PD study, 6 days of dosing", "result": 25, "unit": "nM"}]}
